Test results from US6051712A, “Piperidine derivatives having renin inhibiting activity” (Hoffmann-La Roche Inc., priority 1995, dated 2000).
Counter-ions that a name gives are not always drawn. Like-named read-outs stand apart in the source and are kept apart here.

Target: T1, human renin (Homo sapiens, UniProt P00797)
T1 sequence (P00797 67-406): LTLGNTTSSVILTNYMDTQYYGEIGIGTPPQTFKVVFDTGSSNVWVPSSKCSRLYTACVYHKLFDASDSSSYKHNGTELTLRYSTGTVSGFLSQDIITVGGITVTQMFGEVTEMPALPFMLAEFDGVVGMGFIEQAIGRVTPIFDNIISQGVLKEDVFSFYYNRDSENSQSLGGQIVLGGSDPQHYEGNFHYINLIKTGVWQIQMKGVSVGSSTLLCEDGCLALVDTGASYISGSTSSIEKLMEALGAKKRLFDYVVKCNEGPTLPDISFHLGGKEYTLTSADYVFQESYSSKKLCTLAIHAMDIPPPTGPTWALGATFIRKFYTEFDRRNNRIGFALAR
Assay: In vitro test with pure human renin (angiotensin I production from human tetradecapeptide renin substrate, measured by RIA)
Format: biochemical
Description: In vitro test with pure human renin
The test is carried out in Eppendorf test tubes. The incubation mixture consists of (1) 100 μl of human renin in buffer A (0.1M sodium phosphate solution, pH 7.4, containing 0.1% bovine serum albumin, 0.1% sodium azide and 1 mM ethylenediaminetetraacetic acid), sufficient for a renin activity of 2-3 ng of angiotensin l/ml/hr.; (2) 145 μl of buffer A: (3) 30 μl of 10 mM human tetradecapeptide renin substrate (hTD) in 10 mM hydrochloric acid: (4) […] of dimethyl sulphoxide with or without inhibitor and (5) 10 μl of a 0.03 molar solution of hydroxyquinoline sulphate in water.
The samples are incubated for three hours at 37° C. and, respectively, 4° C. in triplicate. 2×100 μl samples per test tube are used in order to measure the production of angiotensin I via RIA (standard radioimmunoassay; clinical assay solid phase kit). […] The production of angiotensin I is determined by the difference between the test at 37° C, and that at 4° C.
The following controls are carried out:
(a) Incubation of hTD samples without renin and without inhibitor at 37° C. and 4° C. The difference between these two values gives the base value of the angiotensin I production.
(b) Incubation of hTD samples with renin, but without inhibitor at 37° C. and 4° C. The difference between these values gives the maximum value of the angiotensin I production.
In each sample the base value of the angiotensin I production is subtracted from the angiotensin I production which is determined. The difference between the maximum value and the base value gives the value of the maximum substrate hydrolysis (=100%) by renin.
The IC50 values are determined from a linear regression curve from a logit-log plot.

[1] = pure human renin, pH 7.4, three hours at 37° C. (less 4° C.), human tetradecapeptide substrate, angiotensin I by RIA, read-out: IC50 values (concentration of the inhibitor at which the enzymatic activity is inhibited by 50%)

Row | Structure (SMILES) | IC50 [1] [nM] | IC50 [nM]
1 | OCC(O)COCc1ccc2cc(CO[C@H]3CNCC[C@@H]3c3ccc(OCCCOCc4ccccc4)cc3)ccc2c1 (mixture of isomers) [U, a mixture of (3RS,4RS)- and (3SR,4SR)-4-[4-(3-benzyloxy-propoxy)-phenyl]-3-[6-[(RS)-2,3-dihydroxy-propoxymethyl]-naphthalen-2-ylmethoxy]-piperidine] | 24 | –
2 | CN1CCN(CCO[C@@H]2CNC[C@H](OCc3ccc4ccccc4c3)[C@H]2c2ccc(OCCCOCc3ccccc3)cc2)CC1 (racemic) [X, 1-{2-[(3RS,4RS,5SR)-4-[4-(3-benzyloxy-propoxy)-phenyl]-3-(naphthalen-2-ylmethoxy)-piperidin-5-yloxy]-ethyl}-4-methyl-piperazine] | 3 | –
3 | COc1cc(CO[C@H]2CNCC[C@@H]2c2ccc(OCCCC3CCCCC3)nc2)c(OC)c2ccccc12 (relative stereo) [GG, (3'RS,4'RS)6-(3-Cyclohexyl-propoxy)-3(1,4-dimethoxy-naphthalen-2-ylmethox)-1',2',3',4',5',6hexahydro-[3,4']bipyridine] | 1 | –
4 | COC[C@@H]1CNC[C@H](OCc2ccc3ccccc3c2)[C@H]1c1ccc(OCCCOCc2ccccc2)cc1 (relative stereo) [CC] | 2 | –
5 | c1ccc(COCCCOc2ccc([C@H]3CCNC[C@@H]3OCc3ccc4ccc(OCCN5CCOCC5)cc4c3)cc2)cc1 (racemic) [N, 4-[2-[7-[(3RS,4RS)-4-[4-(3-benzyloxy-propoxy)-phenyl]-piperidin-3-yloxymethyl]-naphthalen-2-yloxy]-ethyl]-morpholine hydrochloride (1:2)] | 12 | –
6 | Fc1ccc([C@H]2C[C@@H]3CC[C@@H](N3)[C@@H]2OCc2cc(OCc3ccccc3)c3ccccc3c2)cc1 (racemic) [L, (1RS,2RS,3RS,5SR)-2-(4-benzyloxy-naphthalen-2-ylmethoxy)-3-(4-fluoro-phenyl)-8-aza-bicyclo[3.2.1]octane] | – | 3080
7 | COc1ccccc1COc1cc(CO[C@H]2CNCC[C@@H]2c2ccc(OCCOC(=O)c3ccccc3)cc2)cc2ccccc12 (racemic) [C, (3RS,4RS)-2-[4-[3-[4-(2-methoxy-benzyloxy)-naphthalen-2-ylmethoxy]-piperidin-4-yl]-phenoxy]-ethyl benzoate hydrochloride] | 70 | –
8 | COc1ccccc1OCCCOc1ccc([C@H]2CCNC[C@@H]2OCc2cc(OC)c3ccccc3c2OC)cc1 (relative stereo) [LL] | 1 | –
9 | CN1CCN(CCCNC(=O)OC[C@@H]2CNC[C@H](OCc3ccc4ccccc4c3)[C@H]2c2ccc(OCCCOCc3ccccc3)cc2)CC1 (relative stereo) [DD] | 1 | –
10 | COc1cc(CO[C@H]2CNC[C@@H](OCc3cc(OC)c(OC)c(OC)c3)[C@@H]2c2ccc(OCCCOCc3ccccc3)cc2)cc(OC)c1OC [MM, (3R,4s,5S)-4-[4-(3-benzyloxy-propoxy)-phenyl]-3,5-bis-(3,4,5-trimethoxy-benzyloxy)-piperidine] | 0.5 | –
11 | COc1ccccc1COCCCOc1ccc([C@H]2CCNC[C@@H]2OCc2cc(OC)c3ccccc3c2OC)cn1 (relative stereo) [TT] | 0.5 | –
12 | Fc1ccc([C@@H]2CCNC[C@H]2OCc2cc(OCc3ccccc3)c3ccccc3c2)cc1 [SS, (3S,4S)3-(4-Benzyloxy-naphthalen-2-ylmethoxy)-4-(4-fluoro-phenyl)-piperidne] | 132000 | –
13 | CCC[C@@H]1CNC[C@H](OCc2cc(OCc3ccccc3)c3ccccc3c2)[C@H]1c1ccc(F)cc1 (racemic) [Compound I, (3RS,4RS,5SR)-3-(4-benzyloxy-naphthalen-2-ylmethoxy)-4-(4-fluoro-phenyl)-5-propyl-piperidine] | 317 | –
14 | CCN(CC)C[C@@H]1CNC[C@H](OCc2ccc3ccccc3c2)[C@H]1c1ccc(OCCCOCc2ccccc2)cc1 (relative stereo) [JJ] | 2 | –
15 | OCCCO[C@@H]1CNC[C@H](OCc2ccc3ccccc3c2)[C@H]1c1ccc(OCCCOCc2ccccc2)cc1 (racemic) [W, 3-[(3RS,4SR,5SR)-4-[4-(3-benzyloxy-propoxy)-phenyl]-3-(naphthalen-2-ylmethoxy)-piperidin-5-yloxy]-propan-1-ol] | 2 | –
16 | c1ccc(COCCCOc2ccc([C@H]3[C@H](Cn4cncn4)CNC[C@@H]3OCc3ccc4ccccc4c3)cc2)cc1 (relative stereo) [NN, (3RS,4RS,5SR)4-[4(3-Benzyloxy-propoxy)-phenyl3-(naphthalen-2-ylmethoxy)-5[1,2,4]triazol1-ylmethyl-piperidine hydrochloride] | 1 | –
17 | c1ccc(COCCCOc2ccc([C@H]3[C@H](COCCN4CCOCC4)CNC[C@@H]3OCc3ccc4ccccc4c3)cc2)cc1 (relative stereo) [BB] | 3 | –

Continued by falling IC50 [1], values first:

Row | IC50 [1] [nM] | Structure (SMILES) | IC50 [nM]
18 | 2600 | O=C(OC(Cc1ccc2ccccc2c1)[C@H]1CNCC[C@@H]1c1ccc(F)cc1)c1ccccc1 (stereo partly drawn) [K, (SR)- or (RS)-1-[(3RS,4SR)-4-(4-fluoro-phenyl)-piperidin-3-yl]-2-naphthalen-2-yl-ethyl benzoate hydrochloride (1:1)] | –
19 | 73 | Oc1cc(CO[C@H]2CNCC[C@@H]2c2ccc(CCSc3nc4ccccc4s3)cc2)cc2ccccc12 (racemic) [H, (3RS,4RS)-3-[4-[4-[2-(benzothiazol-2-ylsulphanyl)-ethyl]-phenyl]-piperidin-3-yloxymethyl]-naphthalen-1-ol] | –
20 | 40 | c1ccc(COCCCOc2ccc([C@H]3CCNC[C@@H]3OCc3ccc4c(c3)OCCO4)cc2)cc1 (racemic) [D, (3RS,4RS)-4-[4-(3-benzyloxy-propoxy)-phenyl]-3-(2,3-dihydro-benzo[1,4]dioxin-6-ylmethoxy)-piperidine] | –
21 | 26 | O=C(OCCOc1ccc([C@H]2CCNC[C@@H]2OCc2ccc3ccccc3c2)cc1)c1ccccc1Cl (relative stereo) [B, (3RS,4RS)-2-[4-(3-napthalen-2-ylmethoxy-piperidin-4-yl)-phenoxy]-ethyl 2-chloro-benzoate hydrochloride] | –
22 | 11 | O=C(OCCOc1ccc([C@H]2CCNC[C@@H]2OCc2ccc3ccccc3c2)cc1)c1cccs1 (racemic) [A, (3RS,4RS)-2-[4-(3-naphthalen-2-ylmethoxy-piperidin-4-yl)-phenoxy]-ethylthiophene-2-carboxylate hydrochloride] | –
23 | 6 | OC[C@@H]1CNC[C@H](OCc2ccc3ccccc3c2)[C@H]1c1ccc(OCCCOCc2ccccc2)cc1 (relative stereo) [HH, (3SR,4RS,5RS)[4[4(3-Benzyloxy-propoxy)-phenyl5-(naphthalen-2-ylmethoxy)-pperidin-3-ylmethanol hydrochloride] | –
24 | 5 | OCC(O)COCc1ccc2ccc(CO[C@H]3CNCC[C@@H]3c3ccc(OCCCOCc4ccccc4)cc3)cc2c1 (mixture of isomers) [T, a mixture of (3RS,4RS)- and (3SR,4SR)-4-[4-(3-benzyloxy-propoxy)-phenyl]-3-[7-[(RS)-2,3-dihydroxy-propoxymethyl]-naphthalen-2-ylmethoxy]-piperidine] | –
25 | 2 | OCCCCO[C@@H]1CNC[C@H](OCc2ccc3ccccc3c2)[C@H]1c1ccc(OCCCOCc2ccccc2)cc1 (racemic) [V, 4-[(3RS,4SR,5SR)-4-[4-(3-benzyloxy-propoxy)-phenyl]-3-(naphthalen-2-ylmethoxy)-piperidin-5-yloxy]-butan-1-ol] | –
26 | 2 | O=C1NCCN1C[C@@H]1CNC[C@H](OCc2ccc3ccccc3c2)[C@H]1c1ccc(OCCCOCc2ccccc2)cc1 (relative stereo) [VV] | –
27 | 1 | COc1ccc(CO[C@H]2CNC[C@@H](OCc3ccc(OC)cc3)[C@@H]2c2ccc(OCCCOCc3ccccc3)cc2)cc1 [AA, (3R,4s,5S)-4-[4-(3-benzyloxy-propoxy)-phenyl]-3,5-bis-(4-methoxy-benzyloxy)-piperidine] | –
28 | 0.5 | COc1ccccc1COCCCOc1ccc([C@H]2CCNC[C@@H]2OCc2ccc3c(c2)NCCC3)cc1 (racemic) [YY, (3RS,4RS)-4-[4-[3-(2-methoxy-benzyloxy)-propoxy]-phenyl]-3-(1,2,3,4-tetrahydro-quinolin-7-ylmethoxy)-piperidine] | –
29 | 0.4 | c1ccc(COCCCOc2ccc([C@H]3[C@H](CSc4ccncc4)CNC[C@@H]3OCc3ccc4ccccc4c3)cc2)cc1 (relative stereo) [EE] | –
30 | 0.03 | COc1ccccc1COCCCOc1ccc([C@H]2[C@H](O)CNC[C@@H]2OCc2cc(OC)c3ccccc3c2OC)cc1 (racemic) [ZZ, (3RS,4SR,5SR)-3-(1,4-dimethoxy-naphthalen-2-ylmethoxy)-4-[4-[3-(2-methoxy-benzyloxy)-propoxy]-phenyl]-piperidin-5-ol] | –
